From patent US20220030868A1, “FUNGICIDAL HALOMETHYL KETONES AND HYDRATES” (FMC CORPORATION, priority 2018, published 2022)

What was measured:
[1] = test system: Puccinia recondita f. sp. tritici; test: Test B: test suspension sprayed on wheat seedlings one day before inoculation with Puccinia recondita f. sp. tritici spores (wheat leaf rust), disease rating; assay type: in vivo; settings: 100 = 100% disease control, 0 = no control
Text: General protocol for preparing test suspensions for Tests A-C: the test compounds were first dissolved in acetone in an amount equal to 3% of the final volume and then suspended at the desired concentration (in ppm) in acetone and purified water (50/50 mix by volume) containing 250 ppm of the surfactant PEG400 (polyhydric alcohol esters). The resulting test suspensions were then used in Tests A-C. The test solution was sprayed to the point of run-off on wheat seedlings. The following day the seedlings were inoculated with a spore suspension of Puccinia recondita f. sp. tritici (the causal agent of wheat leaf rust) and incubated in a saturated atmosphere at 20° C. for 24 h, and then moved to a growth chamber at 20° C. for 6 days, after which time disease ratings were made. Results for Tests A-C are given in Table A. In the Table, a rating of 100 indicates 100% disease control and a rating of 0 indicates no disease control (relative to the controls). An asterisk “*” or a double asterisk “**” next to the rating value indicates a 50 ppm or 10 ppm test suspension was used, respectively. A dash (-) indicates the compound was not tested.

Phakopsora pachyrhizi = test: Test A: test suspension sprayed on soybean seedlings one day before inoculation with Phakopsora pachyrhizi spores (Asian soybean rust), visual disease rating; assay type: in vivo; settings: 100 = 100% disease control, 0 = no control; for pest or weed control at 50 ppm / pest or weed control at 10 ppm: Phakopsora pachyrhizi
Text: General protocol for preparing test suspensions for Tests A-C: the test compounds were first dissolved in acetone in an amount equal to 3% of the final volume and then suspended at the desired concentration (in ppm) in acetone and purified water (50/50 mix by volume) containing 250 ppm of the surfactant PEG400 (polyhydric alcohol esters). The resulting test suspensions were then used in Tests A-C.
The test solution was sprayed to the point of run-off on soybean seedlings. The following day the seedlings were inoculated with a spore suspension of Phakopsora pachyrhizi (the causal agent of Asian soybean rust) and incubated in a saturated atmosphere at 22° C. for 24 h, and then moved to a growth chamber at 22° C. for 8 days, after which time visual disease ratings were made.
Results for Tests A-C are given in Table A. In the Table, a rating of 100 indicates 100% disease control and a rating of 0 indicates no disease control (relative to the controls). An asterisk “*” or a double asterisk “**” next to the rating value indicates a 50 ppm or 10 ppm test suspension was used, respectively. A dash (-) indicates the compound was not tested.

| SMILES | Test B rating (disease control) ([1]; 10 ppm test suspension) | Test A rating (disease control) (Phakopsora pachyrhizi; 10 ppm test suspension) | other results |
| --- | --- | --- | --- |
| CCO/C(=C\Oc1ccc(Cn2cnc(C(=O)OC)n2)cc1)C(F)(F)F [Compound 123] | 0% | 98% |  |
| CCOC(=O)c1cnn(CCc2ccc(OCC(O)(O)C(F)(F)F)cc2)c1 [Compound 131] |  |  | Test B rating (disease control) ([1]; 50 ppm test suspension): 86%; Test A rating (disease control) (Phakopsora pachyrhizi; 50 ppm test suspension): 99% |
| O=C(c1csc(Cc2ccc(OCC(O)(O)C(F)(F)F)cc2)n1)N1CCC(F)(F)C1 [Compound 135] | 61% | 86% |  |
| CCOC(=O)c1csc(Cc2ccc(OCC(O)(O)C(F)(F)F)cc2)n1 [Compound 136] | 83% | 98% |  |
| CCOC(=O)c1csc(Cc2ccc(OCC3(C(F)(F)F)OCCO3)cc2)n1 [Compound 137] | 0% | 79% |  |
| N#Cc1ccc(OCC(O)(O)C(F)(F)F)cc1 [Compound 142] | 100% | 92% |  |
| CCO/C(=C\Oc1ccc(Cn2cncn2)cc1)C(F)(F)F [Compound 157] | 9% | 0% |  |
| O=Cc1ccc(OCC(O)(O)C(F)(F)F)cc1 [Compound 177] |  |  | Test B rating (disease control) ([1]; 50 ppm test suspension): 89%; Test A rating (disease control) (Phakopsora pachyrhizi; 50 ppm test suspension): 100% |
| CCOC(=O)c1cnn(Cc2ccc(OCC3(C(F)(F)F)OC(=O)[C@@H](C)O3)cc2)c1 (stereo partly shown) [Compound 187] | 74% | 93% |  |
| N#Cc1cnn(Cc2ccc(OCC(O)(O)C(F)(F)F)cc2)c1 [Compound 206] |  |  | Test B rating (disease control) ([1]; 50 ppm test suspension): 98%; Test A rating (disease control) (Phakopsora pachyrhizi; 50 ppm test suspension): 100% |
| O=C(c1csc(Cc2ccc(OCC(O)(O)C(F)(F)F)cc2)n1)N1CCC1 [Compound 215] | 55% | 80% |  |
| COCCNC(=O)c1csc(Cc2ccc(OCC(O)(O)C(F)(F)F)cc2)n1 [Compound 223] | 0% | 75% |  |
| CCOC(=O)c1cnn(Cc2ccc(OC(F)(F)C(O)(O)C(F)(F)F)cc2)c1 [Compound 227] | 55% | 99% |  |
| COC(=O)c1ccc(OCC(O)(O)C(F)(F)F)cc1 [Compound 229, methyl 4-(3,3,3-trifluoro-2,2-dihydroxypropoxy)phenylcarboxylate] |  |  | pest or weed control at 50 ppm ([1]; 50 ppm test suspension): 100%; pest or weed control at 50 ppm (Phakopsora pachyrhizi; 50 ppm test suspension): 99% |
| CCOC(=O)c1ccn(Cc2ccc(O/C=C(\OCC)C(F)(F)F)cc2)n1 [Compound 231, ethyl 1-[[4-[[(1Z)-2-ethoxy-3,3,3-trifluoro-1-propen-1-yl]oxy]phenyl]methyl]-1H-pyrazole-3-carboxylate] |  |  | pest or weed control at 10 ppm ([1]; 10 ppm test suspension): 0%; pest or weed control at 10 ppm (Phakopsora pachyrhizi; 10 ppm test suspension): 100% |
| CCOC(=O)c1ccn(Cc2ccc(OCC(O)(O)C(F)(F)F)cc2)n1 [Compound 233] |  |  | Test B rating (disease control) ([1]; 50 ppm test suspension): 96%; Test A rating (disease control) (Phakopsora pachyrhizi; 50 ppm test suspension): 100% |
| CCOC(=O)c1ccnn1Cc1ccc(OCC(O)(O)C(F)(F)F)cc1 [Compound 234] |  |  | Test B rating (disease control) ([1]; 50 ppm test suspension): 92%; Test A rating (disease control) (Phakopsora pachyrhizi; 50 ppm test suspension): 100% |
| O=C(NCC1CC1)c1cnc(Cc2ccc(OCC(O)(O)C(F)(F)F)cc2)o1 [Compound 247] | 0% | 13% |  |
| O=C(NCC1CC1)c1cnc(Cc2ccc(OCC3(C(F)(F)F)OCCO3)cc2)o1 [Compound 248] | 0% | 71% |  |

| SMILES | Test B rating (disease control) ([1]; 10 ppm test suspension) | Test A rating (disease control) (Phakopsora pachyrhizi; 10 ppm test suspension) | other results |
| --- | --- | --- | --- |
| O=C(NCC1CC1)c1cnc(Cc2ccc(OCC(O)(O)C(F)(F)F)cc2)s1 [Compound 256] | 0% | 73% |  |
| O=C(NCC(F)(F)F)c1cnc(Cc2ccc(OCC3(C(F)(F)F)OCCO3)cc2)o1 [Compound 257] | 0% | 54% |  |
| O=C(NCC1CC1)c1cnc(Cc2ccc(OCC3(C(F)(F)F)OCCO3)cc2)s1 [Compound 259] | 0% | 25% |  |
| CCO/C(=C\Oc1ccc(Cn2ncnc2SC)cc1)C(F)(F)F [Compound 260] | 0% | 0% |  |
| CCO/C(=C\Oc1ccc(Cn2cnc(SC)n2)cc1)C(F)(F)F [Compound 261] | 0% | 0% |  |
| CCOC(=O)c1cnn(Cc2ccc(OCC3(C(F)(F)F)OCCO3)c(F)c2)c1 [Compound 263, ethyl 1-[[3-fluoro-4-[[2-(trifluoromethyl)-1,3-dioxolan-2-yl]methoxy]phenyl]methyl]-1H-pyrazole-4-carboxylate] |  |  | pest or weed control at 10 ppm ([1]; 10 ppm test suspension): 0%; pest or weed control at 10 ppm (Phakopsora pachyrhizi; 10 ppm test suspension): 100% |
| CCOC(=O)c1cnn(Cc2cccc(OCC(O)(O)C(F)(F)F)c2)c1 [Compound 266, ethyl 1-[[3-(3,3,3-trifluoro-2,2-dihydroxypropoxy)phenyl]methyl]-1H-pyrazole-4-carboxylate] |  |  | pest or weed control at 50 ppm ([1]; 50 ppm test suspension): 74%; pest or weed control at 50 ppm (Phakopsora pachyrhizi; 50 ppm test suspension): 86% |
| O=C(NCC(F)(F)F)c1cnc(Cc2ccc(OCC(O)(O)C(F)(F)F)cc2)o1 [Compound 274] | 0% | 48% |  |
| O=C(NCC(F)(F)F)c1cnc(Cc2ccc(OCC3(C(F)(F)F)OCCO3)cc2)s1 [Compound 275] | 0% | 0% |  |
| O=C(NCC(F)(F)F)c1cnc(Cc2ccc(OCC(O)(O)C(F)(F)F)cc2)s1 [Compound 277] | 45% | 50% |  |
| O=[N+]([O-])c1ccc(OCC(O)(O)C(F)(F)F)cc1 [Compound 280] |  |  | Test B rating (disease control) ([1]; 50 ppm test suspension): 100%; Test A rating (disease control) (Phakopsora pachyrhizi; 50 ppm test suspension): 100% |
| CCOC(=O)c1cnn(CCCc2ccc(OCC(O)(O)C(F)(F)F)cc2)c1 [Compound 286] | 55% | 87% |  |
| O=C(NCC(F)F)c1cnc(Cc2ccc(OCC(O)(O)C(F)(F)F)cc2)s1 [Compound 295] |  |  | Test B rating (disease control) ([1]; 50 ppm test suspension): 80%; Test A rating (disease control) (Phakopsora pachyrhizi; 50 ppm test suspension): 99% |
| CCOC(=O)c1cnn(COCc2ccc(O/C=C(\OCC)C(F)(F)F)cc2)c1 [Compound 297, ethyl 1-[[4-[[(1Z)-2-ethoxy-3,3,3-trifluoro-1-propen-1-yl]oxy]phenylmethoxy]methyl]-1H-pyrazole-4-carboxylate] |  |  | pest or weed control at 10 ppm ([1]; 10 ppm test suspension): 0%; pest or weed control at 10 ppm (Phakopsora pachyrhizi; 10 ppm test suspension): 100% |
| CCO/C(=C\Oc1cccc(Cn2cc(C(=O)OC)cn2)c1)C(F)(F)F [Compound 330, methyl 1-[[3-[[(1Z)-2-ethoxy-3,3,3-trifluoro-1-propen-1-yl]oxy]phenyl]methyl]-1H-pyrazole-4-carboxylate] |  |  | pest or weed control at 10 ppm ([1]; 10 ppm test suspension): 0%; pest or weed control at 10 ppm (Phakopsora pachyrhizi; 10 ppm test suspension): 100% |
| CCCOC(=O)c1cnn(Cc2cccc(O/C=C(\OCC)C(F)(F)F)c2)c1 [Compound 331, propyl 1-[[3-[[(1Z)-2-ethoxy-3,3,3-trifluoro-1-propen-1-yl]oxy]phenyl]methyl]-1H-pyrazole-4-carboxylate] |  |  | pest or weed control at 10 ppm ([1]; 10 ppm test suspension): 0%; pest or weed control at 10 ppm (Phakopsora pachyrhizi; 10 ppm test suspension): 100% |
| CCOC(=O)c1cnn(COc2ccc(O/C=C(\OCC)C(F)(F)F)cc2)c1 [Compound 364, ethyl 1-[[4-[[(1Z)-2-ethoxy-3,3,3-trifluoro-1-propen-1-yl]oxy]phenoxy]methyl]-1H-pyrazole-4-carboxylate] |  |  | pest or weed control at 50 ppm ([1]; 50 ppm test suspension): 0%; pest or weed control at 50 ppm (Phakopsora pachyrhizi; 50 ppm test suspension): 100% |
| COC(=O)c1cnn(Cc2ccc(OCC3(C(F)(F)F)OCCO3)cc2)c1 [compound 13] | 0% | 99% |  |
| CC(C)OC(=O)c1cnn(Cc2ccc(OCC3(C(F)(F)F)OCCO3)cc2)c1 [compound 14] | 0% | 100% |  |
